{"source": "the METLIN SMRT retention time set (Domingo-Almenara et al. 2019)"}
{"test": "gradient 5% acetonitrile 3 min, to 50% in 2 min, to 85% in 15 min, held 3 min, 100 µL/min", "settings": "column: Zorbax Extend-C18 2.1 x 50 mm; eluents: water / acetonitrile, 0.1% formic acid", "procedure,_shortened": "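Standards, all pure, were combined into mixtures of ~100 molecules and run at 100 μL/min on a Zorbax Extend-C18 column (2.1 × 50 mm, 1.8 μm) with water and acetonitrile, each containing 0.1% formic acid. A coupled quadrupole time-of-flight mass spectrometer operated in positive and negative ionization mode. Retention time values come from computationally picked adduct peaks, each inspected manually.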", "units": {"RP-LC retention time": "s"}}
{"smiles": "Cc1ccc(C)c(NC(=O)C2CC(=O)N(CCc3c[nH]c4ccc(F)cc34)C2)c1", "note": "(configuration not stated)", "RP-LC retention time": 586}
{"smiles": "O=C(COc1ccc(F)c(F)c1)N1CCC(Nc2cccnc2)C1", "note": "(configuration not stated)", "RP-LC retention time": 604}
{"smiles": "CCc1nn2c(CNS(=O)(=O)c3ccc(Cl)cc3)c(-c3ccccc3)nc2s1", "RP-LC retention time": 1000}
{"smiles": "COCc1noc(C2CN(C(=O)c3ocnc3C)CC23CCCC3)n1", "note": "(configuration not stated)", "RP-LC retention time": 733}
{"smiles": "COc1ccc(S(=O)(=O)Nc2ccc3oc(-c4ccccc4OC)cc(=O)c3c2)cc1", "RP-LC retention time": 686}
{"smiles": "O=C(Cn1c(C(F)(F)F)nc2cc3c(cc21)OCCO3)NCc1ccc(Cl)cc1", "RP-LC retention time": 885}
{"smiles": "COc1ccc(OC(=O)c2cn(CC(C)C)c(=O)c3ccccc23)cc1", "RP-LC retention time": 1180}
{"smiles": "CCOc1ccc(CC(=O)N2CCCn3nc(-c4cccs4)cc3C2)cc1", "RP-LC retention time": 850}
{"smiles": "Cc1cc(OCC(=O)Nc2ccccc2Cl)nc(N2CCN(c3ccccc3)CC2)n1", "RP-LC retention time": 993}
{"smiles": "O=C(Nc1ccc2c(c1)OCCO2)C1CCCN(c2cnc3nccnc3c2)C1", "note": "(configuration not stated)", "RP-LC retention time": 689}
{"smiles": "Cc1nc(-c2ccc(OC3CCN(C(=O)NC4CCCCC4)C3)cc2)no1", "note": "(configuration not stated)", "RP-LC retention time": 845}
{"smiles": "O=C(C1CCCCCC1)N1CCC2(CC1)CC(O)CCO2", "note": "(configuration not stated)", "RP-LC retention time": 681}
{"smiles": "COc1ccc2c(c1)-c1nc(NC(=O)c3ccccc3C)sc1CC2", "RP-LC retention time": 1130}
{"smiles": "Cc1nn(C)cc1S(=O)(=O)Nc1ccc(C(F)(F)F)cc1", "RP-LC retention time": 753}
{"smiles": "CCCN(CC1CCOC1)C(=O)Nc1cccc(F)c1C", "note": "(configuration not stated)", "RP-LC retention time": 758}
{"smiles": "Cc1cc(C)n(-c2ccnc(N3CCC(C(=O)NCC4CCCO4)CC3)n2)n1", "note": "(configuration not stated)", "RP-LC retention time": 674}
{"smiles": "c1ccc(CNc2nc(NCc3ccccc3)c3ccccc3n2)cc1", "RP-LC retention time": 796}
{"smiles": "CCC1CN2C=NC(N3CCN(C(=O)Nc4ccc(OC)c(F)c4)CC3)=CC2=N1", "note": "(configuration not stated)", "RP-LC retention time": 622}
{"smiles": "Cc1cc(N2CCCC2)n2nc(CN3CCCCC3C)nc2n1", "note": "(configuration not stated)", "RP-LC retention time": 566}
{"smiles": "Cc1ccc(-c2csc(Cc3nc(-c4ccccc4Cl)no3)n2)cc1", "RP-LC retention time": 1280}
{"smiles": "CCCCNC(=O)CCC(=O)N1CC2CCCN2c2ccccc21", "note": "(configuration not stated)", "RP-LC retention time": 837}
{"smiles": "Cn1cc(-c2cc3n(n2)CCC(=O)N3CCCC(=O)NCC2COCCO2)c2ccccc21", "note": "(configuration not stated)", "RP-LC retention time": 680}
{"smiles": "CCn1cc(CN2CCC(C(=O)NCCCN3CCOCC3)CC2)c2cc(Cl)ccc21", "RP-LC retention time": 585}
{"smiles": "CCOc1cc(=O)n2c(c1C(=O)Nc1ccc(Cl)cc1C)CCCC2", "RP-LC retention time": 786}
{"smiles": "Cc1ccc(Nc2c(-c3ccccc3O)nc3ccccn23)cc1", "RP-LC retention time": 739}
{"smiles": "O=S(=O)(c1cc(-c2nnc(C3CC3)o2)co1)N1CCN(C2CCCCC2)CC1", "RP-LC retention time": 640}
{"smiles": "COc1ccc2c(c1)[C@H]1OCCC[C@H]1C(c1ccc(C(=O)O)cc1)N2", "note": "(some centres not stated)", "RP-LC retention time": 820}
{"smiles": "COc1ccc(C2=NC(c3ccc(Cl)cc3)C(c3ccc(Cl)cc3)N2C(=O)N2CCNC(=O)C2)c(OC(C)C)c1", "note": "(configuration not stated)", "RP-LC retention time": 887}
{"smiles": "CC(C)(C)c1nnc(NC(=O)C2CC(=O)N(CCc3c[nH]c4ccc(F)cc34)C2)s1", "note": "(configuration not stated)", "RP-LC retention time": 782}
{"smiles": "CCc1cccc(NC(=O)N2CCC(OC3CCN(S(C)(=O)=O)CC3)CC2)c1", "RP-LC retention time": 803}
{"smiles": "Cc1nnc2sc(SCc3ccc([N+](=O)[O-])cc3)nn2c1=O", "RP-LC retention time": 697}
{"smiles": "O=c1n(Cc2ccc(Cl)cc2)nc2c(S(=O)(=O)N3CCCCCC3)cccn12", "RP-LC retention time": 991}
{"smiles": "CC(C)c1cc(N2CCN(C(=O)c3ccc4c(c3)OCO4)CC2)nc2nncn12", "RP-LC retention time": 610}
{"smiles": "O=C(Nc1ccccc1Cl)N1CCC(N2CCN(Cc3ccccc3)C(=O)C2=O)CC1", "RP-LC retention time": 867}
{"smiles": "COc1ccc(-c2nc(-c3cn(-c4cccc(Cl)c4)nn3)no2)c(OC)c1", "RP-LC retention time": 1070}
{"smiles": "CCOc1ccccc1NC(=O)Cn1nc2cc(-c3ccc(OC)cc3)nc(C)n2c1=O", "RP-LC retention time": 1020}
{"smiles": "O=C(c1cccnc1)C1Cc2ccccc2C1=O", "note": "(configuration not stated)", "RP-LC retention time": 884}
{"smiles": "Clc1cccc(N2CCN(c3ncnc4[nH]ncc34)CC2)c1", "RP-LC retention time": 725}
{"smiles": "O=C(C1=CN(c2ccc3c(c2)OCO3)c2ccccc2S1(=O)=O)N1CCOCC1", "RP-LC retention time": 717}
{"smiles": "CCOC(=O)c1ccccc1NC(=O)Cn1c(=O)n(-c2ccc(F)cc2)c(=O)c2c1cc(C)n2C", "RP-LC retention time": 1010}
{"smiles": "CCc1ccc(Oc2cc(N3CCC(C(=O)NCc4ccc(OC)cc4)CC3)ncn2)cc1", "RP-LC retention time": 988}
{"smiles": "Cc1ccccc1S(=O)(=O)N1CCCC(CCC(=O)NCC2CCCCC2)C1", "note": "(configuration not stated)", "RP-LC retention time": 580}
{"smiles": "O=C(NCc1ccccc1)C1CCc2nc(N3CCN(C(=O)C4CCC4)CC3)sc2C1", "note": "(configuration not stated)", "RP-LC retention time": 578}
{"smiles": "CCN1C(=O)C(C)(C(=O)Nc2cc(OC)ccc2OC)Oc2cccnc21", "note": "(configuration not stated)", "RP-LC retention time": 959}
{"smiles": "Cc1ccc(C(=O)Nc2nc(-c3ccc(Br)cc3)cs2)cc1[N+](=O)[O-]", "RP-LC retention time": 1210}
{"smiles": "COc1ccccc1CNc1ncc(C(=O)O)c(-c2ccncc2)n1", "RP-LC retention time": 638}
{"smiles": "C=CCc1cc(OC)ccc1OCC(O)CN1CCN(C(=O)OCC)CC1", "note": "(configuration not stated)", "RP-LC retention time": 592}
{"smiles": "CCOc1ccc(-c2nc(NC(=O)c3sc(C)nc3C)sc2C)cc1", "RP-LC retention time": 976}
{"smiles": "CC1=C(c2ccc(C)cc2)S(=O)(=O)N=C1N1CCCN(C(=O)c2ccoc2)CC1", "RP-LC retention time": 786}
{"smiles": "Cc1nc(C)c(C(=O)Nc2nc(-c3ccc(Br)cc3)cs2)s1", "RP-LC retention time": 1030}
{"smiles": "O=C(c1ccc2ccnc(N3CCN(c4ccc(Cl)cc4)CC3)c2c1)N1CCC2(CC1)OCCO2", "RP-LC retention time": 791}
{"smiles": "COc1cccc(C2Cn3nnc(-c4nc(-c5ccccc5Cl)no4)c3CO2)c1", "note": "(configuration not stated)", "RP-LC retention time": 1150}
{"smiles": "C=CCNC(=O)c1sc(Nc2cccc(C)n2)nc1C", "RP-LC retention time": 697}
{"smiles": "CC1=C(C(=O)Nc2cccc(C(=O)N3CCN(c4ccccc4)CC3)c2)SCCO1", "RP-LC retention time": 873}
{"smiles": "CC1CCN(CCNC(=O)c2nnc(-c3ccc(S(=O)(=O)N4CCCCC4)cc3)o2)CC1", "RP-LC retention time": 663}
{"smiles": "CCc1cccc(C)c1Nc1c(-c2ccccc2O)nc2ncccn12", "RP-LC retention time": 907}
{"smiles": "O=c1c2sccc2n(Cc2nc(-c3ccccc3)no2)c(=O)n1CCc1ccccc1", "RP-LC retention time": 1130}
{"smiles": "O=C(c1csc(N2CCN(c3ccc(F)cc3)CC2)n1)N1CCOCC1", "RP-LC retention time": 954}
{"smiles": "O=C(NCc1ccco1)c1ccc(-n2nnc3cccnc32)cc1Cl", "RP-LC retention time": 793}
{"smiles": "CSc1nnc(-c2nn(C)c3c2CN(C(=O)c2ccccc2Cl)CC3)n1C", "RP-LC retention time": 710}
{"smiles": "COc1ccc(C2Cn3nnc(-c4nc(-c5cccc(F)c5)no4)c3CO2)cc1", "note": "(configuration not stated)", "RP-LC retention time": 1100}
{"smiles": "COc1ccc(S(=O)(=O)NCCCCN2CCOC(c3ccccc3)C2)c(C)c1", "note": "(configuration not stated)", "RP-LC retention time": 600}
{"smiles": "CCc1ccc(N2C(=O)CN(S(C)(=O)=O)CC2(C)C(=O)NCc2ccc(Cl)cc2)cc1", "note": "(configuration not stated)", "RP-LC retention time": 874}
{"smiles": "CCOc1ncccc1CNC(=O)CNC(C)=O", "RP-LC retention time": 568}
{"smiles": "O=C(c1cn2nc(Cl)ccc2n1)N1CCN(c2ccccc2F)CC1", "RP-LC retention time": 836}
{"smiles": "Cc1c(Cl)cccc1S(=O)(=O)N1CCN(c2nc3ccncc3n(C)c2=O)CC1", "RP-LC retention time": 732}
{"smiles": "CC(CNC(=O)c1nc(N2CCOCC2)c2ccccc2n1)c1ccccc1", "note": "(configuration not stated)", "RP-LC retention time": 726}
